{
  "source": "patent US5814599A",
  "about": "“Transdermal delivery of encapsulated drugs” (Massachusetts Insitiute of Technology, priority 1995, dated 1998)",
  "key": {"[1]": {"test_system": "hairless rats", "assay": "Transdermal glucose extraction by sonophoresis in vivo", "set-up": "species or system rat", "conditions": "20 KHz, 62.5, continuous, 1 minute", "protocol": "In vivo experiments were performed to assess the efficacy of sonophoresis across living skin. […] The hairless rats were anesthetized with a mixture of ketamine (60 mg/kg) and xylazine (10 mg/kg). After about an hour in anesthesia, a flanged glass cylinder (Crown Glass Company, diameter 20 mm, height 2 cm) was glued on the rat's back using a minimal amount of superglue (Permabond International) or vacuum grease (Dow Chemicals) on the outer edge of the flange. The center of the cylinder was located about 3 cm from the rear end of the rat. This particular site was chosen to avoid application of ultrasound directly on a sharp bone close to the body surface, which otherwise might have caused damage to the blood capillaries near the edge of the bone. The cylinder was filled with PBS (phosphate concentration=0.01M, NaCl concentration=0.137M) (Sigma Chemicals Co.). […] The concentration of glucose in PBS was measured using an assay kit (Sigma Chemicals)."}, "[2]": {"assay": "Transdermal glucose extraction by sonophoresis in vitro", "format": "in vitro ADME, human", "conditions": "for glucose concentration attained in the donor compartment: 10 minutes sonophoresis; for glucose concentration in the donor compartment as percent of that in the receiver compartment: 20 KHz, 125 mW/cm^2, continuous", "protocol": "Transdermal transport of a ^14 C labeled (New England Nuclear) as well as non-labeled (Sigma Chemicals) was studied in the presence as well as in the absence of low-frequency ultrasound. The permeability experiments were performed in vitro using human cadaver skin obtained from local hospitals. […] The Franz diffusion cell consists of two compartments, the donor and the receiver compartments, with the stratum comeum facing the donor compartment. […] The donor and receiver compartments were then clamped. The receiver compartment was filled Phosphate Buffer Saline (PBS, phosphate concentration=0.01M, NaCl concentration=0.137M) (Sigma Chemicals Co.) The donor compartment was filled with a solution of either radiolabelled glucose (1 mCi/ml) or non-labeled glucose (concentration in the range of 50 mg/dL to 300 mg/dL) in separate experiments. The concentration of the permeant in the receiver compartment was measured every 5 minutes using a scintillation counter (model 2000 CA, Packard) in the case of radiolabelled glucose and using a commercially available kit (Sigma Chemicals) in the case of unlabeled glucose.\nUltrasound was applied using a sonicator (VCX 400, Sonics and Materials) operating at a frequency of 20 KHz. The ultrasound intensity was measured using a hydrophone (Model 8106, Bruel and Kjaer).\nAdditional experiments were performed to assess whether the amount of glucose transported by sonophoresis is proportional to the glucose concentration in the […]. In separate experiments, glucose concentration in the receiver solution was varied from 50 mg/dL to 350 mg/dL (typical variation in the blood glucose level of a diabetic patient) and performed sonophoresis using ultrasound (20 KHz, 125 mW/cm^2, continuous) for 10 minutes. […] The line shown in FIG. 3B represents the best fit."}, "[3]": {"protocol": "(§1) Materials and methods: In vivo as well as in vitro experiments were performed to study the effect of low-frequency ultrasound on the transport of insulin across the skin. In vitro experiments were performed using human cadaver skin. The skin was heat stripped by keeping it in water at 60° C. for two minutes followed by the removal of the epidermis. It was then stored at 4° C. in a humidified chamber. A piece of epidermis was taken out from the chamber prior to the experiments and was mounted on the Franz diffusion cell (Crown Bioscientific Co.) which consists of two compartments, the donor and the receiver compartment. […] The human cadaver epidermis (separated from the dermis by heat-treatment) is mounted between the two compartments and is supported by a Nylon mesh (Tetko Inc.) to avoid any damage. The skin was supported by a nylon mesh (Tetko Inc.) in order to a mimic the fact the skin in vivo is supported by mechanically strong dermis. The compartments were then clamped together. The receiver compartment was filled with 2%. BSA (Sigma Chemicals) solution in PBS (Sigma Chemicals) and the donor solution was filled with 100 U/ml solution of human recombinant insulin (Humulin Regular). The ultrasound intensity, I, (Spatial Average Temporal Peak) was calculated from the values of the acoustic pressure amplitude, P, measured using a hydrophone (Bruel and Kjaer) using the equation, I=P^2 /2.rho.c, where .rho. is the water density (1 gm/ml), and c is the velocity of ultrasound in water [1500 m/s]."}, "[4]": {"assay": "In vitro skin permeability to proteins in the presence of ultrasound (Franz diffusion cell)", "format": "in vitro ADME, human", "protocol": "To assess whether application of ultrasound enhances transdermal protein flux, the skin permeability to these proteins in the presence of ultrasound in vitro across human cadaver epidermis in a Franz Diffusion Cell (Crown Glass Company) was measured. […] The concentration of proteins in the receiver compartment was measured every hour either by RIA or ELISA. The insulin concentration in the receiver compartment was measured every hour by Radioimmuno Assay (performed at Linco Research Inc., St. Charles). The γ-interferon concentration was measured using ELISA methods developed by Endogen Inc, and the erythropoeitin concentration was measured by ELISA (performed at ARUP, Salt Lake City). Skin permeabilities to proteins were calculated using the transdermal fluxes measured during the first hour. The transdermal flux can be calculated using the equation, J=DM/.increment.t, where .increment.M is the amount of protein transported per unit skin area during time .increment.t. The skin permeabilities, P, can be calculated from the transdermal flux, J, during the first hour of ultrasound application using the equation, P=J/.increment.C, where .increment.C is the concentration difference across the skin."}, "[5]": {"test_system": "hairless rats", "assay": "In vivo insulin sonophoresis, blood glucose level of normal hairless rats", "conditions": "for amount of insulin delivered: 225 mW/cm^2, area 3 cm^2; for blood glucose level after ultrasound exposure: normal rats, from about 250 mg/dl", "protocol": "Materials and Methods: In vivo experiments were performed using hairless rats (Charles River). The rats were kept in quarantine to insure good health. On the day of experiment, they were taken out of the cages, anesthetized using a mixture of ketamine (90 mg/kg) and xylazine (10 mg/kg). After about an hour into anesthesia, a glass chamber was glued to the back of the rat using superglue (Permeabond). The glass chamber was filled with 100 U/ml solution of insulin and ultrasound (frequency of 20 KHz, intensity in the range of 0 to 1 W/cm^2, 100 msec pulses applied every second) was applied. The blood glucose level was measured every 30 minutes. Ultrasound was typically turned OFF after 1 hour, although the measurements of the blood glucose were continued for the next three hours.\nTo estimate the amount of insulin penetrating the hairless rat skin during sonophoresis at the various intensities reported in FIG. 2A, various known amounts of insulin in the range of 0 to 1 U subcutaneously (most commonly used method of insulin administration today) in normal rats. The blood glucose levels of these rats were then compared with those of the normal rats undergoing sonophoresis.\nIn order to estimate the dependence of the amount of insulin delivered on ultrasound exposure time (in vivo), insulin-sonophoresis experiments (20 KHz, […], 100 msec pulses applied every second) were performed on normal rats for different exposure times in the range of 1 minute to 1 hour."}, "[6]": {"protocol": "as §1\nUltrasound was turned ON at a frequency of 20 KHz, an intensity varying in the range of 0 to 1 W/cm^2 and 10% duty cycle. Samples (200 μl) were taken from the receiver compartment every hour to measure the concentration of insulin in the receiver compartment. The samples were immediately frozen and were stored at -20° C. till they were analyzed by RIA (Linco Research Co.). Ultrasound was typically applied for 4 hours and was then turned OFF. Transdermal insulin flux was followed for next two hours.", "remark": "listed apart in the source"}, "[7]": {"test_system": "diabetic hairless rats", "assay": "In vivo insulin sonophoresis, blood glucose level of diabetic hairless rats", "set-up": "species or system rat", "conditions": "in 30 minutes, 20 KHz", "protocol": "The blood glucose level was measured every 30 minutes."}, "[8]": {"conditions": "diabetic hairless rats"}, "[9]": {"conditions": "within 2 hours after turning ultrasound OFF"}},
  "note": "Where two headings read alike, the source gives them in different places.",
  "data": [
    {"molecule": "O=C[C@H](O)[C@@H](O)[C@H](O)[C@H](O)CO", "note": "[glucose]", "values": [
      {"measurement": "glucose concentration in the reservoir after extraction", "setting": "[1]; rat blood glucose 450 mg/dL", "value": 1, "unit": "mg/dL"},
      {"measurement": "glucose concentration in the reservoir after extraction", "setting": "[1]; rat blood glucose about 200 mg/dL", "value": 0.2, "unit": "mg/dL"},
      {"measurement": "glucose concentration attained in the donor compartment", "setting": "[2]; receiver compartment 50 mg/dL", "value": 0.5, "unit": "mg/dL"},
      {"measurement": "glucose concentration attained in the donor compartment", "setting": "[2]; receiver compartment 350 mg/dL", "value": 6.5, "unit": "mg/dL"},
      {"measurement": "glucose concentration in the donor compartment as percent of that in the receiver compartment", "setting": "[2]; after 5 minutes of sonophoresis", "value": "about 0.5%"},
      {"measurement": "glucose concentration in the donor compartment as percent of that in the receiver compartment", "setting": "[2]; after 10 minutes of sonophoresis", "value": "about 2%"}
    ]},
    {"molecule": "O", "note": "[water]", "values": [
      {"measurement": "water permeability enhancement", "setting": "[3]; during sonophoresis, 20 KHz, 125 mW/cm^2, 100 msec pulses every second", "value": 100, "unit": "fold"},
      {"measurement": "recovery of water permeability enhancement", "setting": "[3]; [9]", "value": "about 94 (±3) %"},
      {"measurement": "recovery of water permeability enhancement", "setting": "[3]; within 15 hours after turning ultrasound OFF", "value": "98 (±1) %"}
    ]},
    {"molecule": "erythropoeitin", "values": [
      {"measurement": "dose deliverable from a transdermal patch by sonophoresis", "setting": "[4]", "value": "about 140 U/h"},
      {"measurement": "human skin permeability", "setting": "[4]", "value": "9.8×10^-6 (±40%) cm/h"}
    ]},
    {"molecule": "insulin", "values": [
      {"measurement": "blood glucose level upon 1 hour insulin-ultrasound treatment", "setting": "[5]; 20 KHz, 100 msec pulses every second, intensities 0 to 225 mW/cm^2", "value": "intensity dependent decrease"},
      {"measurement": "amount of insulin delivered", "setting": "[5]; 10 minute ultrasound application", "value": "about 100 mU"},
      {"measurement": "amount of insulin delivered", "setting": "[5]; 1 hour ultrasound exposure", "value": "about 1 U"},
      {"measurement": "blood glucose level after ultrasound exposure", "setting": "[5]; 10 minute exposure, 20 KHz", "value": "about 150 mg/dl"},
      {"measurement": "blood glucose level after ultrasound exposure", "setting": "[5]; 1 hour exposure, 20 KHz", "value": "about 30 mg/dl"},
      {"measurement": "subcutaneous insulin dose inducing a similar decrease in blood glucose level", "setting": "[5]; sonophoresis 1 hour at 62.5 mW/cm^2", "value": 100, "unit": "mU"},
      {"measurement": "subcutaneous insulin dose inducing a similar decrease in blood glucose level", "setting": "[5]; sonophoresis 1 hour at 225 mW/cm^2", "value": 1, "unit": "U"},
      {"measurement": "transdermal insulin flux before ultrasound", "setting": "[6]; before ultrasound turned ON", "value": "below the detection limit"},
      {"measurement": "insulin dose that could be delivered from a patch", "setting": "[6]; flux 100 mU/cm^2 /hr, patch area 100 cm^2", "value": "about 13 U/h"},
      {"measurement": "transdermal insulin flux after turning ultrasound OFF", "setting": "[6]; three hours after turning ultrasound OFF", "value": "statistically insignificant"},
      {"measurement": "transdermal insulin flux", "setting": "[6]; ultrasound 20 KHz, 125 mW/cm^2, 10%, reached in about 1 hour, almost constant while ultrasound ON, donor 100 U/ml", "value": "about 100 mU/cm^2 /hr"},
      {"measurement": "transdermal insulin permeability without ultrasound", "setting": "[6]; ultrasound intensity = 0 (FIG. 1B)", "value": "impermeable"},
      {"measurement": "transdermal insulin flux after turning ultrasound OFF", "setting": "[6]; [9]", "value": "below our detection limit"},
      {"measurement": "blood glucose level after insulin-ultrasound treatment", "setting": "[7]; diabetic hairless rats, from about 400 mg/dl, 225 mW/cm^2, 100 msec pulses every second", "value": 200, "unit": "mg/dL"},
      {"measurement": "blood glucose level after insulin-ultrasound treatment", "setting": "[7]; diabetic rat, from 400 mg/dl, 125 mW/cm^2, 100 msec pulses every second", "value": 200, "unit": "mg/dL"},
      {"measurement": "dose deliverable from a transdermal patch by sonophoresis", "setting": "[4]; patch area 40 cm^2, donor 100 U/ml insulin, 3×10^7 γ-interferon, 3×10^5 U/ml erythropoeitin", "value": "about 12 U/h"},
      {"measurement": "human skin permeability", "setting": "[4]; ultrasound 20 KHz, 225 mW/cm^2, 100 msec pulses every second, first hour", "value": "3.3×10^-3 (±35%) cm/h"},
      {"measurement": "level of transdermally delivered human insulin in rat plasma", "setting": "[8]; after 30 minutes of sonophoresis", "value": "77 (±28) picomolar"},
      {"measurement": "level of transdermally delivered human insulin in rat plasma", "setting": "[8]; after 1 hour of sonophoresis", "value": "178 (±84) picomolar"}
    ]},
    {"molecule": "γ-interferon (protein, UniProt P01579 24-161, looked up, γ-interferon (2500 U/ml, Genzyme Corp.), molecular weight 17,000 D) Interferon gamma: QDPYVKEAENLKKYFNAGHSDVADNGTLFLGILKNWKEESDRKIMQSQIVSFYFKLFKNFKDDQSIQKSVETIKEDMNVKFFNSNKKKRDDFEKLTNYSVTDLNVQRKAIHELIQVMAELSPAAKTGKRKRSQMLFRG", "values": [
      {"measurement": "dose deliverable from a transdermal patch by sonophoresis", "setting": "[4]", "value": "about 5×10^6 U/h"},
      {"measurement": "human skin permeability", "setting": "[4]", "value": "8×10^-4 (±22%) cm/h"}
    ]}
  ]
}
